The values that follow come from US9114117B2, “Compounds effective against cancer” (Ingo Schmidt-Wolf, priority 2009, dated 2015).

A short description of series [1]: Relative viability of PBMCs by FACS analysis. Type of series: cell-based. As to conditions: culture = 100%. The text has this: (§1) The peripheral blood lymphocytes (PBLs) out of the PBMCs were selected for the FACS analysis (FIG. 5). A toxicity of the cells induced a shift from viable cells to apoptotic cells (FIG. 6, 7). If the drug or its concentration is very toxic, the cells appear addition-ally in a higher extent necrotic.
DMSO, the solvent of EA and cic, was given to the PBMCs in a ratio of 1:100, as control. The values are related to the culture-control and expressed as mean±standard error of the mean (SEM) taken from 5 separate measurements. In FIG. 5 (A) samples were measured after 24, 48 and 72 h. After 0 h, the time of execution, the relative viability was defined as […]) for all samples. In FIG. 5 (B) the relative viability values for the samples measured after 24, 48 and 72 h.

Series [2] relates to cell line Raji. In words: Relative viability of cell line Raji by FACS analysis. Type of series: cell-based. Particulars: Homo sapiens, culture = 100%; for viability at 30 µM: 30 μM EA; for viability at 10 µM: 10 μM cic.
Text: as §1
DMSO, the solvent of EA and cic, was given to the cell line Raji in a ratio of 1:100, as control. The values are related to the culture-control and expressed as mean±standard error of the mean (SEM) taken from 5 separate measurements. In FIG. 13 (A) samples were measured after 24, 48 and 72 h. After 0 h, the time of execution, the relative viability was defined as 100% for all samples. In FIG. 13 (B) the relative viability values for the samples measured after 24, 48 and 72 h.

For series [3], the system named is cell line LAM-53. Briefly: Relative viability of cell line LAM-53 by FACS analysis. Type of series: cell-based. Particulars: culture = 100%; for viability at 30 µM: 30 μM EA.
Text: as §1
DMSO, the solvent of EA and cic, was given to the cell line LAM-53 in a ratio of 1:100, as control. The values are related to the culture-control and expressed as mean±standard error of the mean (SEM) taken from 5 separate measurements. In FIG. 7 (A) samples were measured after 24, 48 and 72 h. After 0 h, the time of execution, the relative viability was defined as 100% for all samples. In FIG. 7 (B) the relative viability values for the samples measured after 24, 48 and 72 h.
On the technique in general: Flow cytometry measures light scatter and fluorescence of single cells or particles in a stream.

The test system of series [4] is cell line OPM-2. In words: Relative viability of myeloma cell line OPM-2 by FACS analysis. Type of series: cell-based. Particulars: Homo sapiens, culture = 100%; for viability at 30 µM: 30 μM EA; for viability at 10 µM: 10 μM cic.
Text: as §1
DMSO, the solvent of EA and cic, was given to the cell line OPM-2 in a ratio of 1:100, as control. The values are related to the culture-control and expressed as mean±standard error of the mean (SEM) taken from 5 separate measurements. In FIG. 11 (A) samples were measured after 24, 48 and 72 h. After 0 h, the time of execution, the relative viability was defined as 100% for all samples. In FIG. 11 (B) the relative viability values for the samples measured after 24, 48 and 72 h.

The subject of series [5] is cell line DHL-4. Briefly: Relative apoptosis of cell line DHL-4 by FACS analysis. Type of series: cell-based. As to conditions: culture = 0%.
Text: as §1
DMSO, the solvent of EA and cic, was given to the cell line DHL-4 in a ratio of 1:100, as control. The values are related to the culture-control and expressed as mean±standard error of the mean (SEM) taken from 5 separate measurements. In FIG. 10 (A) samples were measured after 24, 48 and 72 h. After 0 h, the time of execution, the relative apoptosis was defined as 0% for all samples. In FIG. 10 (B) the relative apoptosis values for the samples measured after 24, 48 and 72 h.

Another series concerns PBMCs. Briefly: Relative apoptosis of PBMCs by FACS analysis. The class given is cell-based. As to conditions: culture = 0%.
Text: as §1
DMSO, the solvent of EA and cic, was given to the PBMCs in a ratio of 1:100, as control. The values are related to the culture-control and expressed as mean±standard error of the mean (SEM) taken from 5 separate measurements. In FIG. 6 (A) samples were measured after 24, 48 and 72 h. After 0 h, the time of execution, the relative apoptosis was defined as 0% for all samples. In FIG. 6 (B) the relative apoptosis values for the samples measured after 24, 48 and 72 h.

Series [6] relates to cell line DHL-4. Briefly: Relative viability of cell line DHL-4 by FACS analysis. Type of series: cell-based. Particulars: culture = 100%; for viability at 30 µM: 30 μM EA; for viability at 10 µM: 10 μM cic.
Text: as §1
DMSO, the solvent of EA and cic, was given to the cell line DHL-4 in a ratio of 1:100, as control. The values are related to the culture-control and expressed as mean±standard error of the mean (SEM) taken from 5 separate measurements. In FIG. 9 (A) samples were measured after 24, 48 and 72 h. After 0 h, the time of execution, the relative viability was defined as 100% for all samples. In FIG. 9 (B) the relative viability values for the samples measured after 24, 48 and 72 h.

The subject of series [7] is cell line OPM-2. Briefly: Relative apoptosis of myeloma cell line OPM-2 by FACS analysis. The class given is cell-based. As to conditions: culture = 0%.
Text: as §1
DMSO, the solvent of EA and cic, was given to the cell line OPM-2 in a ratio of 1:100, as control. The values are related to the culture-control and expressed as mean±standard error of the mean (SEM) taken from 5 separate measurements. In FIG. 12 (A) samples were measured after 24, 48 and 72 h. After 0 h, the time of execution, the relative apoptosis was defined as 0% for all samples. In FIG. 12 (B) the relative apoptosis values for the samples measured after 24, 48 and 72 h.

For series [8] the following is noted: cited from earlier work.
Series [9] has as its system cell line Raji. In words: Relative apoptosis of cell line Raji by FACS analysis. The class given is cell-based. As to conditions: culture = 0%.
Text: as §1
DMSO, the solvent of EA and cic, was given to the cell line Raji in a ratio of 1:100, as control. The values are related to the culture-control and expressed as mean±standard error of the mean (SEM) taken from 5 separate measurements. In FIG. 14 (A) samples were measured after 24, 48 and 72 h. After 0 h, the time of execution, the relative apoptosis was defined as 0% for all samples. In FIG. 14 (B) the relative apoptosis values for the samples measured after 24, 48 and 72 h.

The test system of series [10] is cell line LAM-53. In words: Relative apoptosis of cell line LAM-53 by FACS analysis. Type of series: cell-based. Particulars: culture = 0%.
Text: as §1
DMSO, the solvent of EA and cic, was given to the cell line LAM-53 in a ratio of 1:100, as control. The values are related to the culture-control and expressed as mean±standard error of the mean (SEM) taken from 5 separate measurements. In FIG. 8 (A) samples were measured after 24, 48 and 72 h. After 0 h, the time of execution, the relative apoptosis was defined as 0% for all samples. In FIG. 8 (B) the relative apoptosis values for the samples measured after 24, 48 and 72 h.

The conditions of series [11]: per day; cited from earlier work.

By viability is commonly meant the share of living cells, or the viability signal relative to a control. A higher viability goes with better survival.

With `C=C(CC)C(=O)c1ccc(OCC(=O)O)c(Cl)c1Cl` [EA, 2-[2,3-dichloro-4-(2-methylidenebutanoyl)phenoxy]acetic acid], in [1] (30 μM EA, 24 h), the viability at 24 h, 30 μM was found to be 98.9%. The viability at 48 h, 30 μM in series [1] (30 μM EA, 48 h) came out at 94.9%. Also, the viability at 72 h, 30 μM in series [1] (30 μM EA, 72 h) stood at 89.5%. For the same molecule, the viability at 30 µM in the series with cell line Raji [2] (24 h) was 95.7%; with cell line Raji [2] (48 h), 90.7%; with cell line Raji [2] (72 h), 78.9%; with cell line LAM-53 [3] (24 h), 96.7%; in the series with cell line LAM-53 [3] (48 h) it was 96.2%; with cell line LAM-53 [3] (72 h), 91%. The viability at 30 µM in the series on cell line OPM-2 [4] (24 h) is 96.4%; in the series on cell line OPM-2 [4] (48 h), 84.2%; with cell line OPM-2 [4] (72 h), 58%; in the series on cell line DHL-4 [6] (24 h), 91.7%; in the series with cell line DHL-4 [6] (48 h), 96%; with cell line DHL-4 [6] (72 h), 97.6%. Besides, the relative apoptosis in the series with cell line DHL-4 [5] (30 μM EA, 24 h) was found to be 6.7%; in the series on cell line DHL-4 [5] (30 μM EA, 48 h) it was 2.0%; with cell line DHL-4 [5] (30 μM EA, 72 h) it was 1.2%; in the series with PBMCs (30 μM EA, 24 h), 1.3%; with PBMCs (30 μM EA, 48 h), 3.9%; in the series with PBMCs (30 μM EA, 72 h), 7.6%. The relative apoptosis came out at 2.3% with cell line OPM-2 [7] (30 μM EA, 24 h); 7.5% in the series with cell line OPM-2 [7] (30 μM EA, 48 h); 13.4% in the series with cell line OPM-2 [7] (30 μM EA, 72 h); 2.4% in the series with cell line Raji [9] (30 μM EA, 24 h); 4.8% in the series on cell line Raji [9] (30 μM EA, 48 h); 9.8% in the series with cell line Raji [9] (30 μM EA, 72 h). The relative apoptosis turned out to be 0.7% in the series with cell line LAM-53 [10] (30 μM EA, 24 h); 1.5% with cell line LAM-53 [10] (30 μM EA, 48 h); 1.8% with cell line LAM-53 [10] (30 μM EA, 72 h). Further, the “solubility in most organic solvents” value in series [8] (e.g. alcohols, chloroform, and benzene) is listed as “soluble”. Also, the solubility in water result in [8] (water) is given as “slightly soluble”.

`Cc1cc(C2CCCCC2)n(O)c(=O)c1` [cic, Ciclopirox olamine]: the viability at 24 h, 10 μM in [1] (10 μM cic, 24 h) turned out to be 99.3%. In series [1] (10 μM cic, 48 h), this molecule showed a viability at 48 h, 10 μM of 98.3%. The same molecule displayed a viability at 72 h, 10 μM in [1] (10 μM cic, 72 h) of 94.4%. Besides, the viability at 10 µM in the series with cell line Raji [2] (24 h) is 83.8%; in the series with cell line Raji [2] (48 h), 45.6%; in the series on cell line Raji [2] (72 h) it was 21.7%; in the series on cell line LAM-53 [3] (24 h, 10 μM cic), 76.2%; in the series on cell line LAM-53 [3] (72 h, 10 μM cic), 32.4%; in the series with cell line OPM-2 [4] (24 h), 93.6%. For the same molecule, the viability at 10 µM in the series on cell line OPM-2 [4] (48 h) stood at 72.5%; with cell line OPM-2 [4] (72 h), 29.4%; in the series with cell line DHL-4 [6] (24 h), 93%; in the series on cell line DHL-4 [6] (48 h), 90.3%; in the series with cell line DHL-4 [6] (72 h) it was 55.9%. Also, the relative viability with cell line LAM-53 [3] (10 μM cic, 48 h) is given as 52.9%. In addition, the relative apoptosis with cell line DHL-4 [5] (10 μM cic, 24 h) stood at 5.8%; in the series with cell line DHL-4 [5] (10 μM cic, 48 h) it was 5.0%; in the series with cell line DHL-4 [5] (10 μM cic, 72 h), 30.8%; in the series with PBMCs (10 μM cic, 24 h), 0.4%; with PBMCs (10 μM cic, 48 h) it was 1.4%; in the series on PBMCs (10 μM cic, 72 h), 3.3%. Further, the relative apoptosis in the series on cell line OPM-2 [7] (10 μM cic, 24 h) is reported as 4.0%; in the series with cell line OPM-2 [7] (10 μM cic, 48 h) it was 15.3%; in the series on cell line OPM-2 [7] (10 μM cic, 72 h) it was 34.8%; with cell line Raji [9] (10 μM cic, 24 h), 14.1%; with cell line Raji [9] (10 μM cic, 48 h), 31.0%; in the series on cell line Raji [9] (10 μM cic, 72 h), 30.0%. In addition, the relative apoptosis with cell line LAM-53 [10] (10 μM cic, 24 h) worked out at 12.2%; with cell line LAM-53 [10] (10 μM cic, 48 h), 34.4%; in the series with cell line LAM-53 [10] (10 μM cic, 72 h), 51.2%. The “maximum concentration in human systemic tolerability studies” value in series [11] is 275 µM.

In the case of `Cc1cc(C2CCCCC2)n(O)c(=O)c1` [Ciclopirox, 6-cyclohexyl-1-hydroxy-4-methyl-1,2-dihydropyridin-2-one], in series [8] (methanol), the solubility in methanol result is reported as “soluble”.
